One test concerns the target T1, human TLR7 (Homo sapiens, UniProt Q9NYK1).
T1 construct: host or cells: HEK-Blue cells
T1 sequence (Q9NYK1 27-1049): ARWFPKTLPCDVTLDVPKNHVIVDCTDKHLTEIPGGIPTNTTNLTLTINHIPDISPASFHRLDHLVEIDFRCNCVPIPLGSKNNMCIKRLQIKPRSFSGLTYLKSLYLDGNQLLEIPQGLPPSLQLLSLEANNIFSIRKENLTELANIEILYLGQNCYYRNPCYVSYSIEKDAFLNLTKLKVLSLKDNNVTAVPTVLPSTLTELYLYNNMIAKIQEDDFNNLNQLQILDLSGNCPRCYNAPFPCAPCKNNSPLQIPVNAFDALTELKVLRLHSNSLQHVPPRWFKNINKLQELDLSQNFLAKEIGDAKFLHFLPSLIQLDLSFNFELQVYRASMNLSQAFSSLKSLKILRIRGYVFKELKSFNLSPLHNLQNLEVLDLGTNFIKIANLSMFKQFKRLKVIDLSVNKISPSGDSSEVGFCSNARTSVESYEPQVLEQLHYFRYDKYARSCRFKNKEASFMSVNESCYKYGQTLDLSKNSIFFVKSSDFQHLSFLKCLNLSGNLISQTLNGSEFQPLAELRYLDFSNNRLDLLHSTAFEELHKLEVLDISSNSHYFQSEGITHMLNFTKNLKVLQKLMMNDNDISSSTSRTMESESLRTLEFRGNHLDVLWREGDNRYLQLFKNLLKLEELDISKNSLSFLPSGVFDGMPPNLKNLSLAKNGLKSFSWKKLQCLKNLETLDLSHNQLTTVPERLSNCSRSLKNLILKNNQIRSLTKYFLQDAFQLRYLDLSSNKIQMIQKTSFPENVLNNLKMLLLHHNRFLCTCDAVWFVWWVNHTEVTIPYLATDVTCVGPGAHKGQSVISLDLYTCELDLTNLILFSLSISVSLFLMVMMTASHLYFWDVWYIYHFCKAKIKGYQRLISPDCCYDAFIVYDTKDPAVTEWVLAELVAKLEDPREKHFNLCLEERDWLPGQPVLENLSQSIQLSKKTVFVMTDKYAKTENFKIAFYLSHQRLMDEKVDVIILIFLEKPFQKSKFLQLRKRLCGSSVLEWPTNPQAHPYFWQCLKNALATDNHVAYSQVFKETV
Nature of the test: TLR7 inhibition reporter assay (HEK-Blue cells, SEAP reporter, gardiquimod stimulation). The class given is cell-based. The conditions noted are these: HEK-Blue cells overexpressing human TLR7, gardiquimod 7.5 μM. The gist of the method: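 SEAP readout via HEK-Blue Detection medium after 22 h at 37 °C, 5% CO2 defines inhibition, normalized between agonist-plus-DMSO wells and a reference inhibitor. Compound dose range 0.05 nM–50 μM; TLR7 cells at 15,000/well (gardiquimod), TLR8 at 20,000/well (R848).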
For orientation: In a reporter assay the amount or activity of a reporter protein is the signal.

Another test addresses T2, human TLR8 (Homo sapiens, UniProt Q9NR97).
T2 construct: host or cells: HEK-Blue cells
T2 sequence (Q9NR97 27-1041): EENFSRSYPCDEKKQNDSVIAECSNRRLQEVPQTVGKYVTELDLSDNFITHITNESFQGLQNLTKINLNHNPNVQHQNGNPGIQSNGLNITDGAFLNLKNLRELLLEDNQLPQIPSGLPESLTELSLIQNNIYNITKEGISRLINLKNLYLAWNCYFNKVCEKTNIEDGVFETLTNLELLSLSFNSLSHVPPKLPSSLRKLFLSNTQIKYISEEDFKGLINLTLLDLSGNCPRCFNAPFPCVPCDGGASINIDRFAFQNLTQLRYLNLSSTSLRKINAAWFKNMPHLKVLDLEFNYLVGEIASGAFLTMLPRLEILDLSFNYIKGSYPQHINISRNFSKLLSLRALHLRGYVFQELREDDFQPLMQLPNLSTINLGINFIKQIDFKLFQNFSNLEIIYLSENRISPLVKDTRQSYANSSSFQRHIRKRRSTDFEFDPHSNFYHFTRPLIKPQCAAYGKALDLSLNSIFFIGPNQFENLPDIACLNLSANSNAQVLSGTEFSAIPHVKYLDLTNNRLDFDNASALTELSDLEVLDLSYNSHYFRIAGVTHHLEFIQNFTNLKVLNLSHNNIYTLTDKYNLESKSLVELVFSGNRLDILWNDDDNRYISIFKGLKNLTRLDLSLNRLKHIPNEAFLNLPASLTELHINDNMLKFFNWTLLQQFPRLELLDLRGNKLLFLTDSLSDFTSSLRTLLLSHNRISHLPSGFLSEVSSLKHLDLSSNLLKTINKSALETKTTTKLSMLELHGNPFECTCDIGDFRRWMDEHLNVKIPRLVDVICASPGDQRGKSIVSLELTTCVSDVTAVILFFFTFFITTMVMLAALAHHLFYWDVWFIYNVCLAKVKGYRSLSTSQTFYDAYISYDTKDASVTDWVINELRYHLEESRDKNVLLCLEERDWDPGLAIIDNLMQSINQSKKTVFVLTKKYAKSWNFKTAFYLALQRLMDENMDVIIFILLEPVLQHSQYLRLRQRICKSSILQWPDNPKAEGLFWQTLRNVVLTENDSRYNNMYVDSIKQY
Nature of the test: TLR8 inhibition reporter assay (HEK-Blue cells, SEAP reporter, R848 stimulation). Particulars: HEK-Blue cells overexpressing human TLR8, R848 15.9 μM. The class given is cell-based. The method, then: TLR7/8/9 Inhibition Reporter Assays
Briefly, cells are seeded into Greiner 384 well plates (15000 cells per well for TLR7, 20,000 for TLR8 and 25,000 for TLR9) and then treated with test compounds in DMSO to yield a final dose response concentration range of 0.05 nM-50 μM. […] After a 22 hour incubation at 37° C., 5% CO2, SEAP levels are determined with the addition of HEK-Blue™ Detection reagent (Invivogen), a cell culture medium that allows for detection of SEAP, according to manufacturer's specifications. The percent inhibition is determined as the % reduction in the HEK-Blue signal present in wells treated with agonist plus DMSO alone compared to wells treated with a known inhibitor.

Another test deals with T3, human TLR9 (Homo sapiens, UniProt Q9NR96).
T3 construct: host or cells: HEK-Blue cells
T3 sequence (Q9NR96 26-1032): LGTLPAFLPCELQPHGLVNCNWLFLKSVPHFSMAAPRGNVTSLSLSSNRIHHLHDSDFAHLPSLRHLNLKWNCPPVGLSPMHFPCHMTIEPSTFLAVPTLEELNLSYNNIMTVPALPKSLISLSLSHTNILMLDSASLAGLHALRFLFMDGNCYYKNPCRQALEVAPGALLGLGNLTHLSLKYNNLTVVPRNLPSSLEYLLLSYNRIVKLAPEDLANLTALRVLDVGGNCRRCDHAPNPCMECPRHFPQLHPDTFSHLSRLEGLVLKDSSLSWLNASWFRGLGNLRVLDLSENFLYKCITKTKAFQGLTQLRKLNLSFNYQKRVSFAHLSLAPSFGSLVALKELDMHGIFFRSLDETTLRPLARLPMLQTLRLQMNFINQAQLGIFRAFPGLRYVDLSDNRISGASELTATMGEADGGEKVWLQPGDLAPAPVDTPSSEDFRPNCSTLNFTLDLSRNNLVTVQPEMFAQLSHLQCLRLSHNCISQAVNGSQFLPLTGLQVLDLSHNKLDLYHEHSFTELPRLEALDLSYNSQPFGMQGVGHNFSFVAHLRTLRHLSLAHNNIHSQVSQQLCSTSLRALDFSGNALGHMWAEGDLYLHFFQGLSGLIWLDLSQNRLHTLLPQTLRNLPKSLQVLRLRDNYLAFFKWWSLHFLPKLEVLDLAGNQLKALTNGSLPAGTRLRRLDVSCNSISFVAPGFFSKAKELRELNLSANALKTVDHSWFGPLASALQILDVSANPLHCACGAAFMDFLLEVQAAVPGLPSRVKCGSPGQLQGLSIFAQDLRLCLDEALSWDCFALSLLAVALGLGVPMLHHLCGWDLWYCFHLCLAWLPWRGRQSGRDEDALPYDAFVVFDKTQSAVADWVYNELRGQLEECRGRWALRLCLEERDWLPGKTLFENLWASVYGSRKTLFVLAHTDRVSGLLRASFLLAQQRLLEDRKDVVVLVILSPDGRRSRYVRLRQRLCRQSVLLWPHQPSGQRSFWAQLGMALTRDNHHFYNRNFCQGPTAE
The experiment in a line: TLR9 inhibition reporter assay (HEK-Blue cells, SEAP reporter, ODN2006 stimulation). The test is classed as cell-based. The conditions noted are these: HEK-Blue cells overexpressing human TLR9, ODN2006 5 nM. In outline:
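HEK-Blue cells overexpressing human TLR7, TLR8 or TLR9 carry a SEAP reporter driven by NF-κB/AP-1 sites. Compounds (0.05 nM–50 μM) were preincubated 30 min at room temperature, then cells were stimulated with gardiquimod 7.5 μM (TLR7), R848 15.9 μM (TLR8) or ODN2006 5 nM (TLR9) for 22 h at 37 °C.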

Another test has as its system TLR9. Nature of the test: In vivo mouse TLR9 PD model (CpG-ODN challenge, plasma IL-6). The conditions noted are these: oral. The protocol:
In Vivo Mouse TLR7 and TLR9 PD Model:
Adult male C57BL/6 mice were used for the experiments. Mice (7 to 10 per group) were randomized into different treatment groups based on body weight. Mice from the respective treatment groups were administered orally with vehicle or test compound. Thirty min after the oral administration of vehicle or test compound, mice were challenged with intraperitoneal injection of gardiquimod for TLR7 PD model and CpG-ODN for TLR9 PD model. Ninety minutes after gardiquimod injection and 120 minutes after CpG-ODN injection, mice were bled under isoflurane anaesthesia and plasma IL-6 level was estimated by using commercially available ELISA kit (BD Biosciences). At the end of experiment, mean cytokine data was plotted and one way ANOVA with Dunnett's test was performed to calculate the significance of test compound treated group vs. vehicle control group. Percent inhibition of cytokine induction was calculated for test compound treated group vs vehicle control group.

The term IC50 denotes the concentration that gives 50% inhibition. Read a high IC50 as weaker potency in that assay. For the compound `CCc1c(-c2ccc(OC)c(OC)c2)[nH]c2ccc(C3CCN(C4CCN(Cc5c(C)[nH]c6ccccc56)CC4)CC3)cc12` [Example 129, 2-(3,4-dimethoxyphenyl)-3-ethyl-5-(1′-((2-methyl-1H-indol-3-yl)methyl)-[1,4′-bipiperidin]-4-yl)-1H-indole], the figures for the IC50 against human TLR7 and against human TLR8 were 1140 nM and 378 nM, respectively.

In the case of `COc1ccc(-c2[nH]c3ccc(C4CCN(Cc5ccncc5)CC4)cc3c2C)cc1OC` [Example 20, 2-(3,4-dimethoxyphenyl)-3-methyl-5-(1-(pyridin-4-ylmethyl)piperidin-4-yl)-1H-indole], the half-inhibitory concentration (IC50) was determined as 978 nM at human TLR8 and 1740 nM against human TLR9.

On to `CCc1c(-c2ccc(OC)c(OC)c2)[nH]c2ccc(C3CCN(C4CCN(Cc5nccn5C)CC4)CC3)cc12` [Example 136, 2-(3,4-dimethoxyphenyl)-3-ethyl-5-(1′-((1-methyl-1H-imidazol-2-yl)methyl)-[1,4′-bipiperidin]-4-yl)-1H-indole], for which the half-maximal inhibitory concentration (IC50) on human TLR7 was determined as 735 nM; at human TLR8 it was 330 nM.

As to `CNCCN1CCC(c2ccc3[nH]c(-c4ccc(OC)c(OC)c4)c(C#N)c3c2)CC1` [Example 118, 2-(3,4-dimethoxyphenyl)-5-(1-(2-(methylamino)ethyl)piperidin-4-yl)-1H-indole-3-carbonitrile-di-trifluoroacetic acid], the IC50 was found to be 347 nM on human TLR8 and 260 nM against human TLR9.

As for `CNCCN1CCC(c2ccc3[nH]c(-c4ccc(OC)c(OC)c4)c(Cl)c3c2)CC1` [Example 119], the IC50 is 555 nM at human TLR8 and 409 nM on human TLR9.

With `COc1ccc(-c2[nH]c3ccc(C4CCN(C(=O)COC5CCN(C)CC5)CC4)cc3c2C(C)C)cc1OC` [Example 315, 1-(4-(2-(3,4-dimethoxyphenyl)-3-isopropyl-1H-indol-5-yl)piperidin-1-yl)-2-((1-methylpiperidin-4-yl)oxy)ethan-1-one], the IC50 at human TLR7 amounted to 538 nM; at human TLR8 it was 824 nM.

Turning to `COc1ccc(-c2[nH]c3ccc(C4CCN(Cc5[nH]cnc5C)CC4)cc3c2C(C)C)cc1OC` [Example 267, 2-(3,4-dimethoxyphenyl)-3-isopropyl-5-(1-((4-methyl-1H-imidazol-5-yl)methyl)piperidin-4-yl)-1H-indole], the half-maximal inhibitory concentration (IC50) against human TLR8 worked out at 25 nM.

Turning to `CCc1c(-c2ccc(OC)c(OC)c2)[nH]c2ccc(C3CCN(C4CCN(Cc5ccoc5)CC4)CC3)cc12` [Example 146, 2-(3,4-dimethoxyphenyl)-3-ethyl-5-(1′-(furan-3-ylmethyl)-[1,4′-bipiperidin]-4-yl)-1H-indole], the figures for the half-maximal inhibitory concentration (IC50) on human TLR7 and against human TLR8 were 586 nM and 178 nM, respectively.

The compound `CNCCN1CCC(c2ccc3[nH]c(-c4ccc(OC)c(OC)c4)c(C(C)C)c3c2)CC1` [Example 196, 2-(4-(2-(3,4-dimethoxyphenyl)-3-isopropyl-1H-indol-5-yl)piperidin-1-yl)-N-methylethan-1-amine] returned an IC50 against human TLR9 of 521 nM. Also, the “% inhibition of IL6” value in the test on TLR9 (dose 1 mg/kg) came out at 47%; with TLR9 (dose 3 mg/kg), 75%; in the test on TLR9 (dose 10 mg/kg) it was 83%; in the test with TLR9 (dose 30 mg/kg), 88%; in the test with TLR9 (dose 100 mg/kg), 62%.

Source of the values: US11180474B2 (BRISTOL-MYERS SQUIBB COMPANY, priority 2016, dated 2021).
